The record followed here is patent publication EP4624466A1, “DEGRADER FOR DECOMPOSING CMET PROTEIN, AND PHARMACEUTICAL COMPOSITION COMPRISING SAME” (Innocure Therapeutics, Inc., priority 2022, dated 2024).

Read-outs that look alike come from different tables or passages of the source.

A word on the DC50: it is the concentration giving 50% degradation. A word on the IC50: it is the concentration that gives 50% inhibition.

Test [1] deals with c-MET (Homo sapiens, UniProt P08581). The test is described as follows: c-MET protein degradation (Simple Western), MKN-45. Conditions: c-MET overexpressing gastric cancer cell line MKN-45, treated 24 hours. It counts as cell-based. The arrangement: assess the resolution of the compound of the present invention for c-MET expressed in cells; endogenous in cells; host or cells: MKN45 (human gastric cancer). As for the experimental part: In order to assess the resolution of the compound of the present invention for c-MET expressed in cells, cells were dispensed in a 12-well plate at a concentration of 2 × 10^5 cells/well, and then gastric cancer cell lines were treated with samples for 24 hours and lung cancer cell lines were treated for 48 hours. Cell lysates were collected using a scraper on ice, centrifuged at 4°C15,000 rpm for 30 min to obtain a protein-containing supernatant. Protein expression was then measured using the Simple Western Automated Western Blot System Abby instrument using 3 µg of protein for each sample. SDS and heat-induced denaturation proteins were separated by molecular weight, attached to capillary, reacted with anti-c-MET or anti-GAPDH antibodies, which are primary antibodies, and then reacted with HRP-conjugated secondary antibodies, and analyzed the protein expression signal with compass software. Protein expression was normalized based on the expression value of GAPDH, and protein development in each sample was measured as a percentage (%) based on 100% of samples treated with 0.1% DMSO carriers, and DC50 (concentration of a compound where 50% protein inhibition is achieved) was calculated from the change in protein expression amount due to compound treatment.

The test system of test [2] is MKN-45. Description: Cell viability / antiproliferative assay (WST-8), MKN-45.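 Also: MKN-45 is a human gastric cancer line overexpressing c-MET, growth inhibition read as WST-8 formazan absorbance at 450 nm after 2 h dye incubation.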 Conditions: read-out: MKN-45 IC50. In general terms: Formazan colour is commonly taken as a measure of viable cells.
Protocol: c-MET overexpressing human gastric cancer cell lines [MKN45] and [SNU638] were cultured in RPMI medium with 10% fetal bovine serum, penicillin (100U/ml), and streptomycin (100mg/ml), and c-MET exon 14 skipping mutant human gastric cancer cell lines [Hs746T] were cultured in DMEM media. The c-MET overexpressing human lung cancer cell line EBC-1 was cultured in MEM media with the addition of 10% fetal bovine serum, penicillin (100U/ml), and streptomycin (100mg/ml). […] The compound synthesized in accordance with the present invention was prepared with a raw material solution of 10 mM dissolved in DMSO (dimethyl sulfoxide), and was sequentially diluted and processed.
In order to observe the inhibitory activity on cell growth, cells were dispensed in a 96-well plate at a concentration of 5,000 cells/well, and then treated with the compound prepared at various concentrations for 72 hours. The viability of the cells was calculated using GraphicPad Prism 8.0 software by adding 10 ml per well of WST-8 (water soluble tetrazolium salt) sample, which reacts with dehydrogenase present in the electron transport system of mitochondria to produce formazon, incubated for 2 hours, and measured absorbance at 450 nm.
Setting [3] is: MKN-45 cells, 72 hours, WST-8, Table 2.

c-MET, sequence (P08581 25-1390): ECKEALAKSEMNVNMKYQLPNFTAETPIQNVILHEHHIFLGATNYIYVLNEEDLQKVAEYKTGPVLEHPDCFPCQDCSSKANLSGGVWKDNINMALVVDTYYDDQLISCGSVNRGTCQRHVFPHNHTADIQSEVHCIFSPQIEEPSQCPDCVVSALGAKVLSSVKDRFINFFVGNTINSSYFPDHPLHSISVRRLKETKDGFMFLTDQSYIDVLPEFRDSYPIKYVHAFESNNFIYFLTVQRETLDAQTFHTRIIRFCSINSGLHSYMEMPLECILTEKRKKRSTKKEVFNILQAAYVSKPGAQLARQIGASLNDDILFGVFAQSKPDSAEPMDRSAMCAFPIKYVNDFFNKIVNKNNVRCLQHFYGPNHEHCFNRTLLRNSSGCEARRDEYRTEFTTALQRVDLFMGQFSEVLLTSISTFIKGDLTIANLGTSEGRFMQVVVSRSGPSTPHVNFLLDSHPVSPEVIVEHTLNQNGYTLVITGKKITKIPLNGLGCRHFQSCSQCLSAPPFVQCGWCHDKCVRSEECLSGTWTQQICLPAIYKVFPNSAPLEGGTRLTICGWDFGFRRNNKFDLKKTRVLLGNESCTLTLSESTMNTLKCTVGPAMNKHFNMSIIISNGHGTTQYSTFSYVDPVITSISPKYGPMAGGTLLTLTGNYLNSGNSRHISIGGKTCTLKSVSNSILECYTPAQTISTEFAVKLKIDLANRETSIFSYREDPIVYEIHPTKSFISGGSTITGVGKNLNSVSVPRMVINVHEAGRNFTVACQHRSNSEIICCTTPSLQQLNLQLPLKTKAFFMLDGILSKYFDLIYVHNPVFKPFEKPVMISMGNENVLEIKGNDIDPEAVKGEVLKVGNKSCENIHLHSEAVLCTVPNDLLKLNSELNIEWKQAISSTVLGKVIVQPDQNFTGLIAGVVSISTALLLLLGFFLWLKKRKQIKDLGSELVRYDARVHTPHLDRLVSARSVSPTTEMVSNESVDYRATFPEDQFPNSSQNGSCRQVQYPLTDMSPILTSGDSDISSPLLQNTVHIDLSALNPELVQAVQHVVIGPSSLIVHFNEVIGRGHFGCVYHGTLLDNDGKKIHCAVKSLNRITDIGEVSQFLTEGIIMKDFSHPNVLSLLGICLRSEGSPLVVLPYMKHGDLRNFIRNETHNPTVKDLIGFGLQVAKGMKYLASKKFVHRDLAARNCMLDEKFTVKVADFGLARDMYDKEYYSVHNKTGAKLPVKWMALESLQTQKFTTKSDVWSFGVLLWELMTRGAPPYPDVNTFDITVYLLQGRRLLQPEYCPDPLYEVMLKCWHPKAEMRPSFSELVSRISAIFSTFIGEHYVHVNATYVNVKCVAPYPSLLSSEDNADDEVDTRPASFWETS

Regarding `N#Cc1cccc(-c2ccc(=O)n(Cc3cccc(-c4ncc(OCC5CCN(C(=O)COCCOCCOCCNc6ccc7c(=O)n(C8CCC(=O)NC8=O)ncc7c6)CC5)cn4)c3)n2)c1` (centres unmarked) [ICT-0000987], the DC50 in test [1] (Table 2) was 100 to 1000 nM. In addition, in test [2] (setting [3]), the IC50 is below 100 nM.
Take `Cc1nn(C2CCC(=O)NC2=O)c(=O)c2ccc(NCCCCCC(=O)N3CCC(COc4cnc(-c5cccc(Cn6nc(-c7cccc(C#N)c7)ccc6=O)c5)nc4)CC3)cc12` (centres unmarked) [ICT-0000990]: the DC50 in test [1] (Table 2) lay within 100 to 1000 nM. In test [2] (Homo sapiens, MKN-45, 72 h), the IC50 lay within 100 to 1000 nM.
`Cc1nn(C2CCC(=O)NC2=O)c(=O)c2cc(N3CCN(CC(=O)N4CCC(COc5cnc(-c6cccc(Cn7nc(-c8cccc(C#N)c8)ccc7=O)c6)nc5)CC4)CC3)ccc12` (centres unmarked) [ICT-0001214, 3-(1-(3-(5-((1-(2-(4-(3-(2,6-dioxopiperidin-3-yl)-1-methyl-4-oxo-3,4-dihydropetalazine-6-yl)piperazine-1-il)acetyl)piperidine-4-il)methoxy)pyrimidine-2-yl)benzyl)6-oxo-1,6-dihydropyridazine-3-yl)benzonitrile]: the DC50 in test [1] (Table 2) was below 100 nM. In test [2] (setting [3]), the IC50 is below 100 nM.
As to `N#Cc1cccc(-c2ccc(=O)n(Cc3cccc(-c4ncc(OCC5CCN(CC(=O)NCCCCCc6ccc7c(=O)n(C8CCC(=O)NC8=O)ncc7c6)CC5)cn4)c3)n2)c1` (centres unmarked) [ICT-0001206], the DC50 in test [1] (Table 2) was below 100 nM. In addition, in test [2] (Homo sapiens, MKN-45, 72 h), the IC50 was below 100 nM.
In the case of `Cc1nn(C2CCC(=O)NC2=O)c(=O)c2cc(N3CCC(CN4CCN(C(=O)CN5CCC(COc6cnc(-c7cccc(Cn8nc(-c9cccc(C#N)c9)ccc8=O)c7)nc6)CC5)CC4)CC3)ccc12` (centres unmarked) [ICT-0001234], the DC50 in test [1] (Table 2) was above 1000 nM. Further, the IC50 in test [2] (Homo sapiens, MKN-45, 72 h) is below 100 nM.
In test [1] (Table 2), `Cc1nn(C2CCC(=O)NC2=O)c(=O)c2ccc(N3CCC(CN4CCN(CC(=O)N5CCC(COc6cnc(-c7cccc(Cn8nc(-c9cccc(C#N)c9)ccc8=O)c7)nc6)CC5)CC4)CC3)cc12` (centres unmarked) [ICT-0001213] showed a DC50 below 100 nM. Further, in test [2] (Homo sapiens, MKN-45, 72 h), the IC50 is below 100 nM.
For `Cc1nn(C2CCC(=O)NC2=O)c(=O)c2ccc(NCCOCCOCCOCCOCCC(=O)N3CCC(COc4cnc(-c5cccc(Cn6nc(-c7cccc(C#N)c7)ccc6=O)c5)nc4)CC3)cc12` (centres unmarked) [ICT-0001091], the DC50 in test [1] (Table 2) is below 100 nM. Also, the IC50 in test [2] (Homo sapiens, MKN-45, 72 h) is below 100 nM.
The compound `Cc1nn(C2CCC(=O)NC2=O)c(=O)c2ccc(N3CCN(CC(=O)N4CCC(COc5cnc(-c6cccc(Cn7nc(-c8cccc(C#N)c8)ccc7=O)c6)nc5)CC4)CC3)cc12` (centres unmarked) [ICT-0001173] showed a DC50 in test [1] (Table 2) below 100 nM. Also, the half-inhibitory concentration (IC50) in test [2] (Homo sapiens, MKN-45, 72 h) was below 100 nM.
For the compound `Cc1nn(C2CCC(=O)NC2=O)c(=O)c2c(NCC(=O)N3CCC(COc4cnc(-c5cccc(Cn6nc(-c7cccc(C#N)c7)ccc6=O)c5)nc4)CC3)cccc12` (centres unmarked) [ICT-0000981], in test [1] (Table 2), the DC50 is above 1000 nM. Also, in test [2] (Homo sapiens, MKN-45, 72 h), the IC50 was below 100 nM.
On to `Cc1nn(C2CCC(=O)NC2=O)c(=O)c2ccc(N3CCN(CCCCC(=O)N4CCC(COc5cnc(-c6cccc(Cn7nc(-c8cccc(C#N)c8)ccc7=O)c6)nc5)CC4)CC3)cc12` (centres unmarked) [ICT-0001176], for which the DC50 in test [1] (Table 2) was below 100 nM. For the same compound, in test [2] (Homo sapiens, MKN-45, 72 h), the IC50 was below 100 nM.
As for `Cn1cc(-c2cnc3c(nnn3C[C@@H]3CN(c4ncc(-c5ccc(CN6CCN(C(=O)CCCNc7cccc8cnn(C9CCC(=O)NC9=O)c(=O)c78)CC6)cc5)cn4)CCO3)n2)cn1` (some centres unmarked) [ICT-0000969], the DC50 in test [1] (Table 1) is below 100 nM. In addition, the IC50 in test [2] (Homo sapiens, MKN-45, 72 h) was below 100 nM.
As to `Cc1nn(C2CCC(=O)NC2=O)c(=O)c2ccc(N3CCN(CCC(=O)N4CCC(COc5cnc(-c6cccc(Cn7nc(-c8cccc(C#N)c8)ccc7=O)c6)nc5)CC4)CC3)cc12` (centres unmarked) [ICT-0001174], in test [1] (Table 2), the DC50 was below 100 nM. Also, in test [2] (Homo sapiens, MKN-45, 72 h), the IC50 was below 100 nM.
`N#Cc1cccc(-c2ccc(=O)n(Cc3cccc(-c4ncc(OCC5CCN(CC(=O)N6CCN(c7ccc8c(=O)n(C9CCC(=O)NC9=O)ncc8c7)CC6)CC5)cn4)c3)n2)c1` (centres unmarked) [ICT-0001221] had a DC50 in test [1] (Table 2) below 100 nM. The IC50 in test [2] (Homo sapiens, MKN-45, 72 h) was below 100 nM.
As to `Cc1nn(C2CCC(=O)NC2=O)c(=O)c2cc(F)c(N3CCN(CC4CCN(CC(=O)N5CCC(COc6cnc(-c7cccc(Cn8nc(-c9cccc(C#N)c9)ccc8=O)c7)nc6)CC5)CC4)CC3)cc12` (centres unmarked) [ICT-0001272], the DC50 in test [1] (Table 2) was below 100 nM. Also, the IC50 in test [2] (Homo sapiens, MKN-45, 72 h) was below 100 nM.
In test [1] (Table 2), `Cc1nn(C2CCC(=O)NC2=O)c(=O)c2ccc(N3CCN(C[C@@H]4CN(C(=O)CN5CCC(COc6cnc(-c7cccc(Cn8nc(-c9cccc(C#N)c9)ccc8=O)c7)nc6)CC5)CCO4)CC3)cc12` (some centres unmarked) [ICT-0001258] yielded a DC50 below 100 nM. In addition, the IC50 in test [2] (Homo sapiens, MKN-45, 72 h) was below 100 nM.
Turning to `Cc1nn(C2CCC(=O)NC2=O)c(=O)c2cc(N3CCC(N4CCN(CC(=O)N5CCC(COc6cnc(-c7cccc(Cn8nc(-c9cccc(C#N)c9)ccc8=O)c7)nc6)CC5)CC4)CC3)ccc12` (centres unmarked) [ICT-0001270], the DC50 in test [1] (Table 2) was below 100 nM. For the same compound, in test [2] (Homo sapiens, MKN-45, 72 h), the IC50 is below 100 nM.
`Cc1nn(C2CCC(=O)NC2=O)c(=O)c2ccc(N3CCN(CC4CN(CC(=O)N5CCC(COc6cnc(-c7cccc(Cn8nc(-c9cccc(C#N)c9)ccc8=O)c7)nc6)CC5)C4)CC3)cc12` (centres unmarked) [ICT-0001253] returned a DC50 in test [1] (Table 2) below 100 nM. Moreover, the IC50 in test [2] (Homo sapiens, MKN-45, 72 h) is below 100 nM.
`Cn1cc(-c2cnc3c(nnn3C[C@@H]3CN(c4ncc(-c5ccc(CN6CCN(C(=O)CCCCCCNc7cccc8cnn(C9CCC(=O)NC9=O)c(=O)c78)CC6)cc5)cn4)CCO3)n2)cn1` (stereo partly drawn) [ICT-0000960, 3-{8-[(7-{4-[(4-{2-[(2S)-2-{[5-(1-methyl-1H-pyrazole-4-yl)-1H-[1,2,3]triazolo[4,5-b]pyrazine-1-yl]methyl}morpholine-4-yl]pyrimidine-5-yl}phenyl)methyl]piperazine-1-yl}-7-oxoheptyl)amino]-1-oxo-1,2-dihydrophthalazine-2-yl}piperidine-2,6-dione] yielded a DC50 in test [1] (Table 1) of 100 to 1000 nM. For the same compound, the IC50 in test [2] (Homo sapiens, MKN-45, 72 h) was below 100 nM.
With `Cn1cc(-c2cnc3c(nnn3C[C@@H]3CN(c4ncc(-c5ccc(CN6CCN(C(=O)CCCCNc7cccc8cnn(C9CCC(=O)NC9=O)c(=O)c78)CC6)cc5)cn4)CCO3)n2)cn1` (stereo partly drawn) [ICT-0000959, 3-{8-[(5-{4-[(4-{2-[(2S)-2-{[5-(1-methyl-1H-pyrazole-4-yl)-1H-[1,2,3]triazolo[4,5-b]pyrazine-1-yl]methyl}morpholine-4-il]pyrimidine-5-yl}phenyl)methyl]piperazine-1-yl}-5-oxopentyl)amino]-1-oxo-1,2-dihydropthalazine-2-yl}piperidine-2,6-dione], in test [1] (Table 1), the DC50 was below 100 nM. In addition, the IC50 in test [2] (MKN-45 cells, 72 hours, WST-8, Table 1) is below 100 nM.
In the case of `Cc1nn(C2CCC(=O)NC2=O)c(=O)c2ccc(NCCOCCOCC(=O)N3CCC(COc4cnc(-c5cccc(Cn6nc(-c7cccc(C#N)c7)ccc6=O)c5)nc4)CC3)cc12` (centres unmarked) [ICT-0001087], the DC50 in test [1] (Table 2) is below 100 nM. Besides, the IC50 in test [2] (Homo sapiens, MKN-45, 72 h) was below 100 nM.
As for `Cc1nn(C2CCC(=O)NC2=O)c(=O)c2cc(N3CCC(N4CCN(C(=O)CN5CCC(COc6cnc(-c7cccc(Cn8nc(-c9cccc(C#N)c9)ccc8=O)c7)nc6)CC5)CC4)CC3)ccc12` (centres unmarked) [ICT-0001233, 3-(1-(3-(5-((1-(2-(4-(1-(3-(2,6-dioxopiperidine-3-yl)-1-methyl-4-oxo-3,4-dihydropthalazine-6-yl)piperidine-4-yl)piperazine-1-yl)2-oxoethyl)piperidine-4-il)methoxy)pyrimidine-2-yl)benzyl)6-oxo-1,6-dihydropyridine-3-yl)benzonitrile], in test [1] (Table 2), the DC50 is below 100 nM. Also, in test [2] (Homo sapiens, MKN-45, 72 h), the IC50 was below 100 nM.
As to `Cc1nn(C2CCC(=O)NC2=O)c(=O)c2ccc(N3CCN(C[C@H]4CCN(CC(=O)N5CCC(COc6cnc(-c7cccc(Cn8nc(-c9cccc(C#N)c9)ccc8=O)c7)nc6)CC5)CO4)CC3)cc12` (some centres unmarked) [ICT-0001254], the DC50 in test [1] (Table 2) was in the range of 100 to 1000 nM. In test [2] (setting [3]), the IC50 is below 100 nM.
